Data published in article PMC6437697 (Journal of Medicinal Chemistry, 2019).

What was measured:
Test in all cases: KINOMEscan
Assay type in all cases: binding
Details in all cases: read-out: % control activity remaining
CASK = molecular target: T1, CASK (Homo sapiens, UniProt O14936)
T1 construct: purchased Eurofins DiscoverX KINOMEscan
T1 sequence (O14936 1-926): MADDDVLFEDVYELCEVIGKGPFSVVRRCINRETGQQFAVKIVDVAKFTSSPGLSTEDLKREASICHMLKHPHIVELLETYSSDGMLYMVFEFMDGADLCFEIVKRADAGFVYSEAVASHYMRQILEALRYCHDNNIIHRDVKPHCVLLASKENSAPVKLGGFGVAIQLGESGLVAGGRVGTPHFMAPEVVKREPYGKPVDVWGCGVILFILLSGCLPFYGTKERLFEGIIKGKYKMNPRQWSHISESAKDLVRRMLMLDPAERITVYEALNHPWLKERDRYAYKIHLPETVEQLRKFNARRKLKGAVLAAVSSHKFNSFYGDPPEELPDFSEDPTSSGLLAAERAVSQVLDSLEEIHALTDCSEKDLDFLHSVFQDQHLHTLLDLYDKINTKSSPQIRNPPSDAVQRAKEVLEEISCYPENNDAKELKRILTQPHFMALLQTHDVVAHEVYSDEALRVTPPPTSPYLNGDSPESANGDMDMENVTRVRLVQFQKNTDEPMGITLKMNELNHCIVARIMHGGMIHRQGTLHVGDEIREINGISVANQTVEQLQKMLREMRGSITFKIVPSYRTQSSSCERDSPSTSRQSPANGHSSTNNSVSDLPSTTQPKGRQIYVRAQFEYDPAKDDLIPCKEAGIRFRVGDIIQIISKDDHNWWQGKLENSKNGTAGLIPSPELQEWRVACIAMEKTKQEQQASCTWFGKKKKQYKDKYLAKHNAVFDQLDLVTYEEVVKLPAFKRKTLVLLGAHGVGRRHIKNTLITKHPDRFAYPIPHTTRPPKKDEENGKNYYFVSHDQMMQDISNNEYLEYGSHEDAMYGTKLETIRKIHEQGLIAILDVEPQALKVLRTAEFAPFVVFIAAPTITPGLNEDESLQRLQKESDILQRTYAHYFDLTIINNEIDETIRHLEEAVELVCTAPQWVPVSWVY

FGFR4 = molecular target: T2, FGFR4 (Homo sapiens, UniProt P22455)
T2 construct: purchased Eurofins DiscoverX KINOMEscan

MAP3K15 = molecular target: T3, MAP3K15 (Homo sapiens, UniProt Q6ZN16)
T3 construct: purchased Eurofins DiscoverX KINOMEscan
T3 sequence (Q6ZN16 1-1313): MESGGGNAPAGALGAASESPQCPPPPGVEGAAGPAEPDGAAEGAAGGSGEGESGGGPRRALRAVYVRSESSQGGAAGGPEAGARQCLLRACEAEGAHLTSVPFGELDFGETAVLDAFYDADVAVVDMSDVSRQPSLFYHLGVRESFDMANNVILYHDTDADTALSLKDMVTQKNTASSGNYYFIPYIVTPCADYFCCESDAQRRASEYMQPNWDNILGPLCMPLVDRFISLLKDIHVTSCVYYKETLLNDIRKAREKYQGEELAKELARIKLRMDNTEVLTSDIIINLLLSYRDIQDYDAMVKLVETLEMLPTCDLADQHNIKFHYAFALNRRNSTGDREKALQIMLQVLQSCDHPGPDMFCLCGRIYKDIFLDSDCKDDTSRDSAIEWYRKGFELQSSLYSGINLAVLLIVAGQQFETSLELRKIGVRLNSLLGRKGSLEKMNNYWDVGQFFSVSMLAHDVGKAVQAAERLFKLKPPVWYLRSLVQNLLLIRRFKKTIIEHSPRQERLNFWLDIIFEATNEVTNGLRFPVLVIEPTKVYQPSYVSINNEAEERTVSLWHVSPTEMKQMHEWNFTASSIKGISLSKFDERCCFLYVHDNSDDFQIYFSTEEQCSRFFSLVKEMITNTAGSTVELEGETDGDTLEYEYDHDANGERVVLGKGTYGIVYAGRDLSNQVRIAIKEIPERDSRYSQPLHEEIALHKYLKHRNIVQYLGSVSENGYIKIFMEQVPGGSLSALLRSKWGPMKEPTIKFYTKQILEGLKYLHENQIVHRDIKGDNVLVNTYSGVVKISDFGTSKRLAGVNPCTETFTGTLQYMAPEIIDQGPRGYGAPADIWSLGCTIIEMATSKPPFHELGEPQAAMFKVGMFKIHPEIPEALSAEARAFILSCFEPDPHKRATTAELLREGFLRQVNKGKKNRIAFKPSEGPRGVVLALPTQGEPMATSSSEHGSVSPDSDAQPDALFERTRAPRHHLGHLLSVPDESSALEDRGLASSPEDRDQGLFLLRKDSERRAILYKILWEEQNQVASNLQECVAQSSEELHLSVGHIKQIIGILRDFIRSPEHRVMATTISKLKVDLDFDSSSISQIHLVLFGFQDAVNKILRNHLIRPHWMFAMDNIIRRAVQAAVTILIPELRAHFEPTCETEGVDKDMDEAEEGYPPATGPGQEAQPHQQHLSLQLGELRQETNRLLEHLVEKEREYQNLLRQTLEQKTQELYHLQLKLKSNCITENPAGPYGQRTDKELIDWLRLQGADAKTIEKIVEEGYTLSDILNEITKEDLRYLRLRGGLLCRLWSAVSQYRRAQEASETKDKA

PAK1 = molecular target: T4, PAK1 (Homo sapiens, UniProt Q13153)
T4 construct: purchased Eurofins DiscoverX KINOMEscan

PIP5K2C = molecular target: T5, PIP5K2C (Homo sapiens, UniProt Q8TBX8)
T5 construct: purchased Eurofins DiscoverX KINOMEscan
T5 sequence (Q8TBX8 1-421): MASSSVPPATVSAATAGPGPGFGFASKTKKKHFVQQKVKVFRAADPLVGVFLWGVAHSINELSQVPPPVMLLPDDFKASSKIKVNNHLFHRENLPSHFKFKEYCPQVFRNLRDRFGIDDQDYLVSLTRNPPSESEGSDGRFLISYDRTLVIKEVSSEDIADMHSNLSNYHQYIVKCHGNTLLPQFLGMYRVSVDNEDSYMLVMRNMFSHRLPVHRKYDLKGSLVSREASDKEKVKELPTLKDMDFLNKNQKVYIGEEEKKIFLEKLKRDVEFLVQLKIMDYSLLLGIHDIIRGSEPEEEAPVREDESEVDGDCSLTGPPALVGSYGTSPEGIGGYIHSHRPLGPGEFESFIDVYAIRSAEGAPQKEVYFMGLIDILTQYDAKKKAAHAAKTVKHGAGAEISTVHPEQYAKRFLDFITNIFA

[1] = molecular target: T6, RPS6KA5(Kin.Dom.1-N-terminal) (Homo sapiens, UniProt O75582)
T6 construct: RPS6KA5(Kin.Dom.1-N-terminal); purchased Eurofins DiscoverX KINOMEscan
T6 sequence (O75582 49-318 limits assumed): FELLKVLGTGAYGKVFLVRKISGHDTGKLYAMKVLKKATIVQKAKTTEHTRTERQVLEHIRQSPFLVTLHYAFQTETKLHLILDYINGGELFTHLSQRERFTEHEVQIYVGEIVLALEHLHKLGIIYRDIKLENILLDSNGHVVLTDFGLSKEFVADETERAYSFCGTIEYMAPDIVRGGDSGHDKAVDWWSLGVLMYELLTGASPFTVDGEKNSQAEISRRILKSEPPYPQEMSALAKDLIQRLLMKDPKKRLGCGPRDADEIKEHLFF

T4 sequence (Q13153 whole entry): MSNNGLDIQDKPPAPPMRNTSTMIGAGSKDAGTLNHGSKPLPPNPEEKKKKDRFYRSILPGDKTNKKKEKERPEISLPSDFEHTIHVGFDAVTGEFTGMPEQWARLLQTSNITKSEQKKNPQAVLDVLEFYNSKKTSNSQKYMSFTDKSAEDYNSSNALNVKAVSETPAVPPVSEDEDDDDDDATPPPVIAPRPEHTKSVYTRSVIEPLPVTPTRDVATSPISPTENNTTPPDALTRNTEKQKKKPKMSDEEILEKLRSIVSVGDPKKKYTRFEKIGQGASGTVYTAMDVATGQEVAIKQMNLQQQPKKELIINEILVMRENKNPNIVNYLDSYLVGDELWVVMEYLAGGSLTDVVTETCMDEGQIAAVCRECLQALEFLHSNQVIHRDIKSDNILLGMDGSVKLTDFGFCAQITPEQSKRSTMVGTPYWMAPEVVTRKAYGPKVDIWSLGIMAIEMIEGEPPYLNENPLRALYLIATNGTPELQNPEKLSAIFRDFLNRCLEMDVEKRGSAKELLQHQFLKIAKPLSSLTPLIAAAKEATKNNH
T2 sequence (P22455 22-802): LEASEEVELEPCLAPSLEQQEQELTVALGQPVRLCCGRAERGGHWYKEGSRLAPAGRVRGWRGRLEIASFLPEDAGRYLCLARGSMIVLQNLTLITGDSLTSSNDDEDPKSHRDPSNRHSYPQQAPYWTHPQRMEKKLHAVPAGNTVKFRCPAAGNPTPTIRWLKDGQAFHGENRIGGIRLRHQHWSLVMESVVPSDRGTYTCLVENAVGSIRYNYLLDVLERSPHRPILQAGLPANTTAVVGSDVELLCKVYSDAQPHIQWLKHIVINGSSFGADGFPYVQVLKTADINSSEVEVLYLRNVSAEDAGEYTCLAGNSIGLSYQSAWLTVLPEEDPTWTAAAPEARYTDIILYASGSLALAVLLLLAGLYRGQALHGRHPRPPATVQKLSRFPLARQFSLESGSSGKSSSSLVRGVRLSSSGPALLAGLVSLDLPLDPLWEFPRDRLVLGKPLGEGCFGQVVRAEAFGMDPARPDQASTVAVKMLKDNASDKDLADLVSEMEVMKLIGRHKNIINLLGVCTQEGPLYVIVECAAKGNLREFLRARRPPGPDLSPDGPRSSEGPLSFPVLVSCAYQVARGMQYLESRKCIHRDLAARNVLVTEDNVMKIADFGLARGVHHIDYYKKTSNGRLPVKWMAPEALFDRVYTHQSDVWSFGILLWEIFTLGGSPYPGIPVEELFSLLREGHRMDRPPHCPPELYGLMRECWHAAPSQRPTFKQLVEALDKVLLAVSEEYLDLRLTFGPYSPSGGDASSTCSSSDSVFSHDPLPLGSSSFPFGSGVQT

Row | Structure (SMILES) | remaining binding at 1 µM (CASK) | remaining binding at 1 µM (FGFR4) | remaining binding at 1 µM (MAP3K15) | remaining binding at 1 µM (PAK1) | remaining binding at 1 µM (PIP5K2C) | remaining binding at 1 µM [1]
1 | Clc1cc(NCC2CC2)c2ncc(-c3ccc4[nH]ncc4c3)n2n1 [compound 2, 6-Chloro-N-(cyclopropylmethyl)-3-(1H-indazol-5-yl)imidazo[1,2-b]pyridazin-8-amine] | 87% | 94% | 83% | 98% | 67% | 100%
2 | O=C(CN1CCOCC1)N[C@H]1CC[C@H](Nc2cc(Cl)nn3c(-c4ccc5[nH]ncc5c4)cnc23)CC1 [compound 26] | 59% | 99% | 98% | 99% | 93% | 99%
3 | CN1CCC(CNc2cc(Cl)nn3c(-c4cc5nc(Nc6ccccc6)[nH]c5cc4F)cnc23)CC1 [compound 31, 6-Chloro-3-(6-fluoro-2-(phenylamino)-1H-benzo[d]imidazol-5-yl)-N-((1-methylpiperidin-4-yl)methyl)imidazo[1,2-b]pyridazin-8-amine] | 100% | 98% | 100% | 89% | 100% | 100%
